Laboratory results from patent US20070196272A1, “ORAL DELIVERY OF THERAPEUTIC AGENTS USING TIGHT JUNCTION AGONISTS” (priority 2006, published 2007).
Read-outs that look alike come from different tables or passages of the source.

Columns and labels:
in vitro = settings: human, Caco-2
Description: (§1) Caco-2 cells, a human colon adenocarcinoma cell line, were grown as monolayers for 21 days in Dulbecco's Modified Eagle's medium (1×) containing 10% fetal bovine serum, 1% non-essential amino acid solution, 1% penicillin-streptomycin and 2% glutamine at 37° C. in an atmosphere of 5% CO2 and 90% relative humidity. Caco-2 cells from passage numbers of 51 to 52 were seeded on permeable polycarbonate inserts (1 cm^2, 0.4 μm pore size) in 12 Transwell plates at a density of 80,000 cells/cm^2. The inserts were fed with media every other day until they were used for experiments 21 days after the initial seeding. The integrity of the cell monolayers was evaluated by measuring the transepithelial electrical resistance (TEER) values before the study using a Millicell®-ERS meter (Millipore Corp., Bedford, Mass.) with chopstick electrodes. […] The cell monolayers were washed twice with PBS prior to the transport experiments. After the wash, the plates were incubated for 30 min at 37° C., and the integrity of the cell monolayers was evaluated by measurement of TEER. The cell inserts were used in transport experiments when the TEER values reached >300 Ωcm^2.
(§2) The insert was moved to a well containing fresh PBS every 10 min for 40 min.
(§3) Papp was calculated according to the following equation: [formula] […]
(§4) The percent enhancement ratio, ER (%), for the Papp was calculated from the formula, [formula] […]

PAR-2 = target: T1, PAR-2 (Mus musculus, UniProt P55086); settings: intracolonic infusion, 5 μg dose; cited from earlier work
T1 construct: Intracolonic infusion of a 5 μg dose of the PAR-2 agonist, SLIGRL; host or cells: colon in vivo (endogenous receptor)
T1 sequence (P55086 26-399): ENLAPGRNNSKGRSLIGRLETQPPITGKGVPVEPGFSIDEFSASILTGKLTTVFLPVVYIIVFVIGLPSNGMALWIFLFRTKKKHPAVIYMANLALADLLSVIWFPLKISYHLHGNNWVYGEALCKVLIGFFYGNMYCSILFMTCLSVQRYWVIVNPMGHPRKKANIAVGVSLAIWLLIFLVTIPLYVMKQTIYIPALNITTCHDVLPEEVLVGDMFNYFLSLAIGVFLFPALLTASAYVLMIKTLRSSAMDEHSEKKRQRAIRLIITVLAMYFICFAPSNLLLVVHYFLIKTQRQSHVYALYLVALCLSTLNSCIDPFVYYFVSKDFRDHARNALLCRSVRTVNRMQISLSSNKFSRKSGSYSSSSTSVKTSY

[1] = tested on: intercellular tight junctions; assay: Ussing chamber model
Text: Our recent observation that zonulin may represent a new member of the serine protease family whose target receptor seems to be a variant of the protease activated receptor (PAR)2, lead us to the observation that the first six amino acids following V. cholerae-mediated ZOT cleavage (AA 289-295 [FCIGRL]) closely resembles the active motif of PAR2 (SLIGRL). Therefore, the six-mer synthetic peptide FCIGRL (that we named AT1002) was generated.

Caco-2 cell monolayers [2] = settings: AT1002 5 mM
Description: as §1, §2, §3, §4

[3] = AT-1002 10 mg/kg with bestatine 30 mg/kg and E-64 10 mg/kg, oral, each sampling time
Description: The ability of AT-1002 on the transport of [^14C]-mannitol across the intestinal membrane was examined in mice. [^14C]-mannitol (30 μCi/kg) was co-administered with AT-1002 (10 mg/kg) and protease inhibitors (i.e. bestatine (30 mg/kg) and E-64 (10 mg/kg)) to mice (n=3 per group) via the oral administration.

[4] = for intestinal transport of [^3H]-cyclosporin A, enhancement: AT-1002 40 mg/kg with PI and BC 0.1% w/v, ID
Text: Male Sprague-Dawley rats (230-280 g) were purchased from Harlan Laboratories (Indianapolis, Ind.). Rats were housed individually in cages and allowed to acclimate at least two days after arrival. Rats were fed Rat Chow and water ad libitum and maintained on a 12-h light: 12-h dark cycle. The protocol for the animal studies was approved by the School of Pharmacy, University of Maryland IACUC.
Male Sprague-Dawley rats were fasted overnight prior to and during the study with free access to water. Prior to the administration of AT1002, the rats were anesthetized with an intra-peritoneal injection of ketamine (80 mg/kg) and xylazine (12 mg/kg), and the duodenum and jugular vein were cannulated. […] Blood samples (250 μl) were drawn via the jugular cannula into heparinized syringes at 0 (actual time point was −5 min before the administration), 20, 60, and 120 min into polypropylene tubes, centrifuged (13,000 rpm for 10 min) immediately and plasma was obtained. Scintillation cocktail was added and samples were analyzed for radioactivity by Beckman Coulter LS 6500 multi-purpose Scintillation counter.
The area under the plasma concentration-time curve (AUC0-t) was calculated using the linear trapezoidal rule. The highest observable concentration was defined as maximum concentration (Cmax). The percent enhancement ratio, ER (%), for the pharmacokinetic parameters was calculated from the formula, [formula]
[^3H]-cyclosporin (120 μCi/kg) was co-administered with AT-1002 (40 mg/kg), protease inhibitors (i.e. bestatine (30 mg/kg) and E-64 (10 mg/kg)) and benzalkonium chloride (0.1% w/v) to rats (n=5 per group) via the intra-duodenal administration.

[5] = PI, BC 0.05% w/v, ID, not statistically enhanced
[6] = AT-1002 10, 20 and 40 mg/kg, PI, BC 0.05% w/v, ID
Description: The effect of AT-1002 on the transport of [^14C]-innulin across the intestine was examined in mice. [^14C]-innulin (30 μCi/kg) was co-administered with AT-1002 (10, 20 and 40 mg/kg), protease inhibitors (i.e. bestatine (30 mg/kg) and E-64 (10 mg/kg)) and benzalkonium chloride (0.05% w/v) to rats (n=4-5 per group) via the intra-duodenal administration.

[7] = as seen with CsA after metabolic protection; cited from earlier work
Caco-2 cell monolayers [8] = settings: ZOT 0.22 to 0.89×10^−10 mol/ml; as seen with paclitaxel; cited from earlier work
[9] = ZOT 4.4×10^−10 mol/kg; cited from earlier work

## OC[C@@H](O)[C@@H](O)[C@H](O)[C@H](O)CO [Mannitol]
In vitro
  Papp at 0.5 μCi/ml: 0.686 ± 0.057 ×10⁻⁶ cm/s

## SLIGRL
PAR-2
  increase in the paracellular permeability of [^51C]-EDTA: 2 fold

## H-FCIGRL-OH [AT1002, H—FCIGRL-OH]
[1]
  permeating effect on intercellular tight junctions: retained the ZOT permeating effect
Caco-2 cell monolayers [2]
  CsA transport across Caco-2 cell monolayers, significance vs control: No significant increases
[3]
  intestinal membrane transport of marker: not enhanced
[4]; 20 min
  intestinal transport of [^3H]-cyclosporin A, enhancement: 1.78 fold
[4]; 60 min
  intestinal transport of [^3H]-cyclosporin A, enhancement: 1.55 fold
[4]; each time point
  change in plasma concentration of CsA between 10 mg/kg and 40 mg/kg of AT1002: No statistically significant change
[4]; in the presence of PI
  in vivo oral absorption of CsA: significantly increased
[5]; AT-1002 10 mg/kg
  intestinal membrane transport of [^14C]-mannitol, increase: 1.43 fold
[5]; AT-1002 20 mg/kg
  intestinal membrane transport of [^14C]-mannitol, increase: 1.24 fold
[5]; AT-1002 30 mg/kg
  intestinal membrane transport of [^14C]-mannitol, increase: 1.81 fold
[6]
  intestinal membrane transport of [^14C]-innulin: not enhanced

## ΔG: 12 kDa fragment (AA 265-399) of ZOT, biologically active fragment
[7]
  increase in AUC: ≤ 50 fold
  increase in Cmax: up to 57 fold

## ZOT: 44.8 kDa protein (399 amino acids) of Vibrio cholerae that reversibly opens tight junctions
Caco-2 cell monolayers [8]
  transport enhancement across Caco-2 cell monolayers: up to 30 fold
[9]
  bioavailability of oral insulin / serum glucose lowering: sufficient to lower serum glucose concentrations to levels comparable to those obtained after parenteral injection
